ChEMBL document CHEMBL1156898, “Synthesis, photophysical properties and photocytotoxicity of mono-, di-, tri- and tetra-glucosylated fluorophenylporphyrins” (Bioorg Med Chem, 2010)
Active and inactive are the calls of the source. The rule behind the calls is not given here.

Tests used:
HeLa [1] = assay: Cytotoxicity against human HeLa cells assessed as cell survival in dark at 100 nM after 24 hrs by WST8 assay; type: functional, cell-based
HeLa [2] = assay: Phototoxicity against human HeLa cells irradiated with 16Jcm'-2 from halogen lamp assessed as cell survival at 100 nM after 24 hrs by WST8 assay; type: functional, cell-based; details: light or radiation study
HeLa [3] = assay: Phototoxicity in human HeLa cells assessed as induction of cell shrinkage at 500 nM after 3 hrs using DAPI staining by confocal laser scanning microscopy; type: functional, cell-based
HeLa [4] = assay: Phototoxicity in human HeLa cells assessed as induction of apoptotic bodies at 500 nM after 3 hrs using DAPI staining by confocal laser scanning microscopy; type: functional, cell-based
[5] = Lipophilicity, log P of the compound; type: physicochemical; details: octanol/water
HeLa [6] = assay: Drug uptake in human HeLa cells at 80 nM after 24 hrs relative to TPPS; type: ADME, cell-based; details: 0.08 µM

logP [5]	Activity (HeLa [6])	Compound	Activity (HeLa [1])	% survival (HeLa [2]) [%]	Activity (HeLa [3])	Activity (HeLa [4])
3.53	Active	OC[C@H]1O[C@@H](Sc2c(F)c(F)c(-c3c4nc(c(-c5c(F)c(F)c(F)c(F)c5F)c5ccc([nH]5)c(-c5c(F)c(F)c(S[C@@H]6O[C@H](CO)[C@@H](O)[C@H](O)[C@H]6O)c(F)c5F)c5nc(c(-c6c(F)c(F)c(F)c(F)c6F)c6ccc3[nH]6)C=C5)C=C4)c(F)c2F)[C@H](O)[C@@H](O)[C@@H]1O	Not toxic	< 5	Active	Active
3.98	Active	OC[C@H]1O[C@@H](Sc2c(F)c(F)c(-c3c4nc(c(-c5c(F)c(F)c(S[C@@H]6O[C@H](CO)[C@@H](O)[C@H](O)[C@H]6O)c(F)c5F)c5ccc([nH]5)c(-c5c(F)c(F)c(F)c(F)c5F)c5nc(c(-c6c(F)c(F)c(F)c(F)c6F)c6ccc3[nH]6)C=C5)C=C4)c(F)c2F)[C@H](O)[C@@H](O)[C@@H]1O	Not toxic	90		
0.75	Active	OC[C@H]1O[C@@H](Sc2c(F)c(F)c(-c3c4nc(c(-c5c(F)c(F)c(S[C@@H]6O[C@H](CO)[C@@H](O)[C@H](O)[C@H]6O)c(F)c5F)c5ccc([nH]5)c(-c5c(F)c(F)c(S[C@@H]6O[C@H](CO)[C@@H](O)[C@H](O)[C@H]6O)c(F)c5F)c5nc(c(-c6c(F)c(F)c(S[C@@H]7O[C@H](CO)[C@@H](O)[C@H](O)[C@H]7O)c(F)c6F)c6ccc3[nH]6)C=C5)C=C4)c(F)c2F)[C@H](O)[C@@H](O)[C@@H]1O	Not toxic	90		
2.99	Active	OC[C@H]1O[C@@H](Sc2c(F)c(F)c(-c3c4nc(c(-c5c(F)c(F)c(S[C@@H]6O[C@H](CO)[C@@H](O)[C@H](O)[C@H]6O)c(F)c5F)c5ccc([nH]5)c(-c5c(F)c(F)c(S[C@@H]6O[C@H](CO)[C@@H](O)[C@H](O)[C@H]6O)c(F)c5F)c5nc(c(-c6c(F)c(F)c(F)c(F)c6F)c6ccc3[nH]6)C=C5)C=C4)c(F)c2F)[C@H](O)[C@@H](O)[C@@H]1O	Not toxic	80		
5.11	Active	OC[C@H]1O[C@@H](Sc2c(F)c(F)c(-c3c4nc(c(-c5c(F)c(F)c(F)c(F)c5F)c5ccc([nH]5)c(-c5c(F)c(F)c(F)c(F)c5F)c5nc(c(-c6c(F)c(F)c(F)c(F)c6F)c6ccc3[nH]6)C=C5)C=C4)c(F)c2F)[C@H](O)[C@@H](O)[C@@H]1O	Not toxic	90		
